Assay results reported in PMC4494771, “Synthesis, structure, and biological activity of novel heterocyclic sulfonyl-carboximidamides” (Monatshefte Fur Chemie, 2013).
Values after ≈ are worked out from the molar mass of the structure shown.

test system: M. tuberculosis sp. 210; assay: Tuberculostatic activity, classical test-tube method of successive dilution; type: cell-based; conditions: Mycobacterium tuberculosis; sp. 210, wild strain resistant to PAS, INH, ETB, RFP

| SMILES | MIC |
| --- | --- |
| NC(=NS(=O)(=O)c1cnccc1Cl)c1ccccn1 [Compound 2, N′-[(4-Chloropyridin-3-yl)sulfonyl]-2-pyridinecarboximidamide] | 50 µg/mL (≈ 168 µM) |
| NC(=NS(=O)(=O)c1ccccc1Cl)c1ncccn1 [Compound 7, N′-[(2-Chlorophenyl)sulfonyl]pyrimidine-2-carboximidamide] | 50 µg/mL (≈ 168 µM) |
| NC(=NS(=O)(=O)c1cnccc1Cl)c1ncccn1 [Compound 8, N′-[(4-Chloropyridin-3-yl)sulfonyl]pyrimidine-2-carboximidamide] | 50 µg/mL (≈ 168 µM) |
| NC(=NS(=O)(=O)c1cnccc1Cl)c1cnccn1 [Compound 10, N′-[(4-Chloropyridin-3-yl)sulfonyl]pyrazine-2-carboximidamide] | 50 µg/mL (≈ 168 µM) |
| NNC(=O)c1ccncc1 [INH, isoniazid, reference compound] | 1.1 µg/mL (≈ 8.02 µM) |
